# Where “and” joins values, the source holds several entries; their conditions need not be identical. Equal values may be shown once. Where a name gives a salt, the structure may show the parent alone. Read-outs that look alike come from different tables or passages of the source. Marks after values point to notes of the source that are not given here.
# Columns and labels:
# [1] = tested on: advanced glycation endproduct (AGE) formation in BSA/MGO model system; experiment: Inhibition of AGE formation, BSA/MGO model system; type: biochemical; conditions: for IC50: BSA/MGO, fluorescence, linear regression, read-out: IC50 against AGE formation, BSA/MGO Model System; for anti-AGE activity higher in comparison to Ru / anti-AGE activity higher in relation to AG: BSA/MGO model system
# Experimental: (§1) The positive control aminoguanidine and standards of rutin, quercetin, and quercetin’s glucosides were dissolved in DMSO and then in a phosphate buffer. The inhibitory activity against the formation of AGEs was analyzed in BSA/glucose and BSA/MGO model systems, as reported by Thornalley, and the fluorescent intensity was measured. The percentage of inhibition of AGEs was calculated from the obtained fluorescence of the test solution with or without inhibitors.
# [2] = tested on: advanced glycation endproduct (AGE) formation in BSA/glucose model system; experiment: Inhibition of AGE formation, BSA/glucose model system; type: biochemical; conditions: fluorescence, linear regression, read-out: IC50 against AGE formation, BSA/Glucose Model System
# Experimental: as §1
# [3] = target: T1, angiotensin-converting enzymes (ACEs) from porcine kidneys (EC 3.4.15.1) (Sus scrofa, UniProt F1RRW5); experiment: biochemical
# T1 construct: angiotensin-converting enzymes (ACEs) from porcine kidneys (EC 3.4.15.1); purchased Sigma (Sigma Chemical Company, Saint Louis, MO, USA); host or cells: porcine kidney
# T1 sequence (F1RRW5 34-1309): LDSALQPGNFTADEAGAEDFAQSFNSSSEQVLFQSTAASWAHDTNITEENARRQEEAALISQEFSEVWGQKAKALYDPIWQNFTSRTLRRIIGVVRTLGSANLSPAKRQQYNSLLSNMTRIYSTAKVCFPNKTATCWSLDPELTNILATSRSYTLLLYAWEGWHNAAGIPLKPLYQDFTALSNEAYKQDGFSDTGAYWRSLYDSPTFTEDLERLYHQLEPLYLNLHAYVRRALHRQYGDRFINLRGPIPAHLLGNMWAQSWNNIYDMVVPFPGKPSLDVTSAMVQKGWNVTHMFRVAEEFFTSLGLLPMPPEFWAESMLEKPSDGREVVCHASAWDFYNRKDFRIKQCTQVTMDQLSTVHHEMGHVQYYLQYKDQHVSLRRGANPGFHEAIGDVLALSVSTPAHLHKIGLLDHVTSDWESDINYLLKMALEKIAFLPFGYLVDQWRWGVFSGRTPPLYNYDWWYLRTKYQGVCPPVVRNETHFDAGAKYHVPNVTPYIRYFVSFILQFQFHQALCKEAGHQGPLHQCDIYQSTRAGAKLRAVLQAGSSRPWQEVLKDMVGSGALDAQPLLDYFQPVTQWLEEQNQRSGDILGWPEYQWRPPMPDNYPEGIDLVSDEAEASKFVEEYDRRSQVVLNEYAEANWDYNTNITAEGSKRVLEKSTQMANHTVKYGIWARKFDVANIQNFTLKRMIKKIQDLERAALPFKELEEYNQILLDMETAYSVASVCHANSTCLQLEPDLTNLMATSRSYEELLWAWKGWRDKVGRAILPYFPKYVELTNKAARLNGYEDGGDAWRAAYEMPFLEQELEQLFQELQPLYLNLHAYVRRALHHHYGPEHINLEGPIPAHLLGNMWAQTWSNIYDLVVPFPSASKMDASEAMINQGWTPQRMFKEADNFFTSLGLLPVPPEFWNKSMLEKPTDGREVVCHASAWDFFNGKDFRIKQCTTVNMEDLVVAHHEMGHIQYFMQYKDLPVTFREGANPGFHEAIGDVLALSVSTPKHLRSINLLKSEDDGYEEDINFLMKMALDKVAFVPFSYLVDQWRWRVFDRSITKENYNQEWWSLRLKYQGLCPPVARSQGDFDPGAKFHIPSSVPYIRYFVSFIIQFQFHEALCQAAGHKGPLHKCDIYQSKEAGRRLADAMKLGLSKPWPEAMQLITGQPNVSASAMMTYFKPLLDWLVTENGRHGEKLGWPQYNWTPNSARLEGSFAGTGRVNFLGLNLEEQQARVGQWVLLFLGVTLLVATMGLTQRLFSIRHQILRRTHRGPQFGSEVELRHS
# Experimental: Standards of rutin, quercetin, and quercetin’s glucosides were dissolved in 80% methanol. Each standard was diluted to various concentrations using deionized water to determine its ACE inhibitory activity, expressed as an IC50 value. The ACE stock solution was prepared by dissolving enzyme in glycerol at 50% with Buffer A (protein concentration approximately 150 μg/mL), whereas the working solution was prepared by the dilution of the stock solution with Buffer B to make a protein concentration of approximately 7.5 μg/mL. The substrate stock solution was prepared by dissolving the whole content (50 mg) of Abz-Gly-Phe (NO2)-Pro (Bachem) in 10.33 mL of Buffer C (concentration approximately 10 mM), while the working solution was prepared by the dilution of the substrate stock solution with Buffer C to make a final Abz-Gly-Phe (NO2)-Pro concentration of approximately 0.45 mM. […] The angiotensin-converting enzyme (ACE) inhibitory activity assay was conducted according to the method of Sentandreu and Toldra. The fluorescence generated was measured using a Tecan Infinite M1000 PRO multiscan microplate fluorometer (TK Biotech, Warsaw, Poland). To calculate the % of inhibition of ACE, the following equation was used: […] = 100 − (ΔRFUsample ∗ 100/ΔRFUnegative control) where ΔRFU = RFUat time 30 − RFUat time 0.
# The IC50 value, indicating the sample concentration at a 50% inhibition of ACE activity, was determined using linear regression analysis of logarithmic plots. At least 3 replicates for each standard solution were conducted. Results were expressed as IC50 values.
# [4] = Cyclic voltammetry: oxidation potential and antioxidant activity vs Trolox; type: physicochemical; conditions: for Antioxidant power class based on first oxidation potential: classification according to Blasco et al. [51]; for Antioxidant Activity: cyclic voltammetry, area under anodic wave, 0.1 mM compound, Trolox regression, n = 6
# Experimental: A galvanostat G 750 (Gamry Ins., Warminster, PA, USA) with a conventional three-electrode system was used for the cyclic voltammetric experiments, with Ru, Q, Ru, Q4′G, Q3G, and Q34′G (0.1 mM in 80% methanol) or Trolox solutions (0.1–2.5 mM) mixed with 0.2 M sodium acetate–acetic buffer (pH 4.5 in 80% methanol) at a ratio of 1:1 (v/v), as has previously been described in detail. The cyclic voltammograms were acquired in the range of −100 to 1300 mV at a scanning rate of 100 mV s^−1.
# [5] = as above; type: physicochemical; conditions: vs. Ag/AgCl, 50 mM acetate-acetic buffer (pH 5.5) in 80% methanol, scan rate 100 mV s^-1, n = 6
# ACE = tested on: ACE; set-up: method as in earlier work; conditions: same fluorimetric method; ref 30 (Guerrero et al.); read-out: IC50 for ACE inhibition (literature); cited from earlier work
SMILES,IC50 [1],IC50 [2],anti-AGE activity higher in comparison to Ru [1],anti-AGE activity higher in relation to AG [1],IC50 [3],Antioxidant power class based on first oxidation potential [4],Antioxidant Activity [4],First Oxidation Potential [5],"IC50 ([3]; IC50 for ACE inhibition, concentration range 1.0-0.01 mM, linear regression, n = 6)",IC50 (ACE)
"N=C(N)NN [AG, aminoguanidine hydrochloride, reference compound]",531 ± 28 µM,432 ± 38 µM,–,–,–,–,–,–,–,–
"O=c1c(O[C@@H]2O[C@H](CO)[C@@H](O)[C@H](O)[C@H]2O)c(-c2ccc(O)c(O)c2)oc2cc(O)cc(O)c12 [Compound Q3G, quercetin-3-O-β-glucoside]",389 ± 22 µM,47 ± 3 µM,6%,37%,135.2 ± 1.04 µM,intermediate potentials (compounds with intermediate potentials (0.3 V < Ep < 0.8 V)),2.59 ± 0.04 ^b mM Trolox,390 mV and 390 ± 4 ^d mV,–,–
"N[C@@H](CCC(=O)N[C@@H](CS)C(=O)NCC(=O)O)C(=O)O [GSH, reduced glutathione, reference compound]",–,–,–,–,–,–,–,–,41.7 µM,–
"O=c1c(O[C@@H]2O[C@H](CO)[C@@H](O)[C@H](O)[C@H]2O)c(-c2ccc(O[C@@H]3O[C@H](CO)[C@@H](O)[C@H](O)[C@H]3O)c(O)c2)oc2cc(O)cc(O)c12 [Q3,4′G, quercetin-3,4′-di-O-β-glucoside]",324 ± 19 µM,89 ± 5 µM,27%,64%,115 ± 1.25 µM,low antioxidant power (a compound with a low antioxidant power (0.8 V < Ep < 1.3 V)),1.07 ± 0.05 ^d mM Trolox,800 mV and 800 ± 7 ^a mV,–,–
"O=c1c(O)c(-c2ccc(O[C@@H]3O[C@H](CO)[C@@H](O)[C@H](O)[C@H]3O)c(O)c2)oc2cc(O)cc(O)c12 [Q4′G, quercetin-4′-O-β-glucoside]",370 ± 23 µM,259 ± 16 µM,11%,44%,143 ± 1.44 µM,intermediate potentials (compounds with intermediate potentials (0.3 V < Ep < 0.8 V)),1.99 ± 0.09 ^c mM Trolox,482 mV and 482 ± 3 ^b mV,–,–
"O=c1c(O)c(-c2ccc(O)c(O)c2)oc2cc(O)cc(O)c12 [Q, quercetin]",466 ± 17 µM,243 ± 12 µM,–,–,59.29 ± 0.48 µM,–,3.92 ± 0.20 ^a mM Trolox,310 mV and 310 ± 4 ^e mV,–,43 µM
"C[C@@H]1O[C@@H](OC[C@H]2O[C@@H](Oc3c(-c4ccc(O)c(O)c4)oc4cc(O)cc(O)c4c3=O)[C@H](O)[C@@H](O)[C@@H]2O)[C@H](O)[C@H](O)[C@H]1O [Ru, quercetin-3-O-rutinoside]",413 ± 24 µM,197 ± 8 µM,–,–,121 ± 1.56 µM,intermediate potentials (compounds with intermediate potentials (0.3 V < Ep < 0.8 V)),2.04 ± 0.07 ^c mM Trolox,410 mV and 410 ± 5 ^c mV,–,64 µM

# From article PMC12195695, “Multifaceted Biological Activity of Rutin, Quercetin, and Quercetin’s Glucosides” (Molecules, 2025)
